The target of experiment [1] is T1, catalytic mutant caspase-11 full length (C254A) (Mus musculus, UniProt P70343, C254A).
T1 construct: recombinant catalytic mutant caspase-11 full length (C254A); His; made in house; host or cells: SF-21 insect cells (baculovirus)
T1 sequence (P70343 81-373 C254A): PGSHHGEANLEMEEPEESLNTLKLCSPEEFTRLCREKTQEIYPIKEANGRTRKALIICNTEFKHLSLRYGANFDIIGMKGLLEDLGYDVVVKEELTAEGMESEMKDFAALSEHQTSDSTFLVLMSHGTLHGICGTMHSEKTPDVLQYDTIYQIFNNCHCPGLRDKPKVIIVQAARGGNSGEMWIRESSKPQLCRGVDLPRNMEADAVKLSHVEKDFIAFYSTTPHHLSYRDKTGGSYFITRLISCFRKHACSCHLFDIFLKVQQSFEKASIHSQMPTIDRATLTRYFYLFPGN
Briefly: SPR analysis of lipid binding to immobilized full length caspase-11 (C254A). The method, then:
For studies to measure the direct binding of oxPAPC to caspase-11, proteins and SPR analysis was performed as described (Shi, J., et al., (2014b) Nature). Briefly, the recombinant catalytic mutant caspase-11 full length (C254A) and caspase-11 ΔN59 (C254A) were purified from P3 baculovirus infected SF-21 insect cells that were cultured in Sf900™ II SFM for 72 h at 28° C. Cells were lysed in lysis buffer containing 1% Triton X-100, 50 mM Tris-HCl (pH 7.6), 300 mM NaCl, 50 mM imidazole and 5 mM 2-mercaptoethanol. Ni-NTA beads (Qiagen) were used to purify His-tagged proteins from lysates. Proteins were released from the beads with elution buffer containing 50 mM Tris-HCl (pH 7.6), 250 mM imidazole and 300 mM NaCl. Imidazole was removed by dialysis. The proteins were further purified with HiTrap Q column and Superdex G200 column (GE Healthcare Life Sciences) to reach high homogeneity.
For surface plasmon resonance (SPR) analysis, BIAcore T100 SPR instrument (GE Healthcare) was used to measure the ligand binding kinetics. The assays were performed in a buffer containing 150 mM NaCl, 3 mM EDTA, 50 mM HEPES (pH 7.5) and 0.005% Tween-20 at 25° C. […] The KD values were calculated by fitting result curves (subtracted the control flow cell value) to a 1:1 Langmuir binding model with the BIAcore T100 evaluation software.
On the technique in general: SPR reads the build-up and loss of mass on a sensor chip optically.

Experiment [2] relates to DCs. Briefly: TNFα secretion from DCs (ELISA). The experiment is classed as cell-based, mouse. The note with it: LPS-primed DCs. The text has this:
C57BL/6J (Jax 000664), C57BL/6NJ (Jax 005304), CD14 KO (Jax 003726), caspase-1/-11 dKO mice (Jax 016621), TLR4-mutant (C3H/HeJ, Jax 000659), and wild-type control for TLR4-mutant (C3H/HeSNJ, Jax 000661) were purchased from Jackson Labs. NLRP3 KO and ASC KO mice were kindly provided by Dr. T. Horng, Harvard School of Public Health. Caspase-11 KO mice were kindly provided by Dr. Junying Yuan, Harvard Medical School. Caspase-1 single KO mice were kindly provided by Thirumala-Devi Kanneganti (St. Judes). DCs were differentiated from bone marrow in IMDM (Gibco), 10% B16-GM-CSF derived supernatant, 2 μM 2-mercaptoethanol and 10% FBS and used after 6 day of culture. DC purity was assessed by flow cytometry and was usually higher than 90%. MO were differentiated from bone marrow in DMEM (Gibco), 30% L929 supernatant, and 10% FBS. Immortal MΦs were cultured in DMEM supplemented with 10% L929 supernatant and 10% FBS. Splenic DCs were purified as described previously (Zanoni et al., 2012). Prior to stimulations, cultured cells were washed and re-plated in DMEM supplemented with 10% FBS at a concentration of 1×10^6 cells/ml in a final volume of 100 μl. For experiments using pan-caspase inhibitor, cells were treated with zVADfmk (20 μM) 30 min before inflammasome activation stimuli addition. […]
RNA was isolated from cell cultures using Qiashedder (Qiagen) and GeneJET RNA Purification Kit (Life Technologies). Purified RNA was analyzed for gene expression on a CFX384 real time cycler (Bio-rad) using TaqMan RNA-to-CT 1-Step Kit (Applied Biosystems) with probes purchased from Life Technologies specific for viperin (Mm00491265_m1), IFNb1 (Mm00439552_s1), IL6 (Mm00446190_m1), caspase-1 (Mm00438023_m1), caspase-11 (Mm00432307_m1), Nlrp3 (Mm00840904_m1), Asc (Mm00445747_g1), TBP (Mm00446971_m1) or GAPDH (Mm99999915_g1). ELISA for IL-1β, IL-2, IL-17, IL-18, TNFα and IFNγ were performed using Mouse Ready-SET-Go ELISA kits (eBioscience). […] Cell associated cytokines were measured as follows: 96-well plates were centrifuged and supernatant was discarded. […]

The test system of experiment [3] is bone marrow derived DCs. Briefly: IL-1β release from DCs (ELISA). The experiment is classed as cell-based, mouse. The note with it: for IL-1β release: LPS-primed DCs. On the procedure: NLRP3 KO and ASC KO mice were kindly provided by Dr. T. Horng, Harvard School of Public Health. Caspase-11 KO mice were kindly provided by Dr. Junying Yuan, Harvard Medical School. Caspase-1 single KO mice were kindly provided by Thirumala-Devi Kanneganti (St. Judes). DCs were differentiated from bone marrow in IMDM (Gibco), 10% B16-GM-CSF derived supernatant, 2 μM 2-mercaptoethanol and 10% FBS and used after 6 day of culture. […] MO were differentiated from bone marrow in DMEM (Gibco), 30% L929 supernatant, and 10% FBS. Immortal MΦs were cultured in DMEM supplemented with 10% L929 supernatant and 10% FBS. […] For experiments using pan-caspase inhibitor, cells were treated with zVADfmk (20 μM) 30 min before inflammasome activation stimuli addition. Cycloheximide (50 ng/ml) was added at the time of stimuli administration. Transfection with DOTAP was performed following the manufacturer instructions. […] 30 min later, the DOTAP/LPS or DOTAP/oxPAPC complex were added to the culture.
RNA was isolated from cell cultures using Qiashedder (Qiagen) and GeneJET RNA Purification Kit (Life Technologies). Purified RNA was analyzed for gene expression on a CFX384 real time cycler (Bio-rad) using TaqMan RNA-to-CT 1-Step Kit (Applied Biosystems) with probes purchased from Life Technologies specific for viperin (Mm00491265_m1), IFNb1 (Mm00439552_s1), IL6 (Mm00446190_m1), caspase-1 (Mm00438023_m1), caspase-11 (Mm00432307_m1), Nlrp3 (Mm00840904_m1), Asc (Mm00445747_g1), TBP (Mm00446971_m1) or GAPDH (Mm99999915_g1). ELISA for IL-1β, IL-2, IL-17, IL-18, TNFα and IFNγ were performed using Mouse Ready-SET-Go ELISA kits (eBioscience). To measure secreted cytokines, supernatant were collected, clarified by centrifugation and stored at −20° C. Cell associated cytokines were measured as follows: 96-well plates were centrifuged and supernatant was discarded. 250 μl of PBS were added to each well. Cells were frozen and thawed two times at −80° C. and then stored at −20° C. for further analysis.
On the technique in general: An ELISA detects its analyte on a solid surface through an enzyme-linked reagent.

In experiment [4] the test system is inflammasome in DCs. Briefly: Inflammasome activation (FIGS. 6-42). The experiment is classed as cell-based.
Experiment [5] concerns the target T2, TLR4 (Mus musculus, UniProt Q9JHF9+Q9QUK6).
T2 construct: endogenous in cells; host or cells: iMΦ, primary bone marrow derived MΦ and DCs
T2 sequence (Q9QUK6 26-835): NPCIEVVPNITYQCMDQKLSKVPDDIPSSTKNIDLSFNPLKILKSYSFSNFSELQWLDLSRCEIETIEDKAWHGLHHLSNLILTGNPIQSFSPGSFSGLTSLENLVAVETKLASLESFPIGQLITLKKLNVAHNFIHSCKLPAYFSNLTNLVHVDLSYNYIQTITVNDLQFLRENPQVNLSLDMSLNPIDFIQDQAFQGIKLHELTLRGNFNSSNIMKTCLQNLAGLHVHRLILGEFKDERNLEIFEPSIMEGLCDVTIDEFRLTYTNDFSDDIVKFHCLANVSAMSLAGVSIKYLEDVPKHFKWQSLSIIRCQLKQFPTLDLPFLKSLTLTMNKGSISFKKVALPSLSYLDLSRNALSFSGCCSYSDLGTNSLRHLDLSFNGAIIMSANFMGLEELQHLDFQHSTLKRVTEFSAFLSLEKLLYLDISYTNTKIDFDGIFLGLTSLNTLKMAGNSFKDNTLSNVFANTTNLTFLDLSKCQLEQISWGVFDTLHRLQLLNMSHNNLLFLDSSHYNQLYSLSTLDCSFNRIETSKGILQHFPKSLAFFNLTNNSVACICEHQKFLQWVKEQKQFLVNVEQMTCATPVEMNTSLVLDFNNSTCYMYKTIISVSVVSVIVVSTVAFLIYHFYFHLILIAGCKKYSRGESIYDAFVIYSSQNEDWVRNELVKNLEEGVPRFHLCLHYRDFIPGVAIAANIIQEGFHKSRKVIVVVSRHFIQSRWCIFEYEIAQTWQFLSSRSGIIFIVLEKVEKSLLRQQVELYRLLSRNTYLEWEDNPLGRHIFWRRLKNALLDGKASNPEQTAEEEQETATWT
T2 sequence (Q9JHF9 19-160): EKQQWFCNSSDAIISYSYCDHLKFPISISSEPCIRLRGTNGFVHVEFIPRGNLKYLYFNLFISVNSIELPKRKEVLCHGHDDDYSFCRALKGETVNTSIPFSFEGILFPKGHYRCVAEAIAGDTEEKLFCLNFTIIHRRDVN
Briefly: TLR4 endocytosis (surface staining, flow cytometry). The format is cell-based. The note with it: cycloheximide treatment. The method, then:
(§1) primary bone marrow derived MΦs and DCs or splenic DCs (0.5×10^6) of the indicated genotypes were treated with E. coli LPS, oxPAPC or chemical inhibitors for the indicated time points at 37° C. Cells were then washed with 1 mL cold PBS and stained for appropriate antibodies on ice for 20 to 30 minutes. 2% mouse serum or rat serum were used as the blocking reagent to reduce non-specific binding of the antibodies. The stained cells were then washed with 1 mL cold PBS and resuspended in 200 μL PBS. Staining of the surface receptors was analyzed with BD FACSCanto II. The mean fluorescence intensity (MFI) of CD14, TLR4 from unstimulated or stimulated cells was recorded. The percentage of surface receptor staining at indicated time points, which is the ratio of the MFI values measured from the stimulated cells to those measured from the unstimulated cells, was plotted to reflect the efficiency of receptor endocytosis. For measuring the extent of TLR4/MD-2 dimerization, the percentage of TLR4/MD2 dimer was calculated by 100%−the percentage of TLR4/MD-2 monomer. The percentage of the TLR4/MD-2 monomer was determined by the ratio of the MFI values (obtained from MTS510 antibody staining) of the stimulated cells to those of the unstimulated cells were indicated. Cells were stained with anti-MHC class II or anti-CD40 antibodies.

For experiment [6], the target named is T3, CD14 (Mus musculus, UniProt P10810).
T3 construct: endogenous in cells; host or cells: iMΦ, primary bone marrow derived MΦ and DCs
T3 sequence (P10810 16-336 limits assumed): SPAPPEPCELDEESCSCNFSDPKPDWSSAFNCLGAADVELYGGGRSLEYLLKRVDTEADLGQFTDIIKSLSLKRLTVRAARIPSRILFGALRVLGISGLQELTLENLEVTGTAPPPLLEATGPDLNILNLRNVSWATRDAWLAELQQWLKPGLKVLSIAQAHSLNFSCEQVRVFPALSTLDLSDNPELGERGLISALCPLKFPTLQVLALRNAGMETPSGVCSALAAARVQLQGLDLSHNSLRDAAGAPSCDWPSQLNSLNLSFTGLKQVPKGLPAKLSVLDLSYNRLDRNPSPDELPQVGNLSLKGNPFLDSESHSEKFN
Briefly: CD14 endocytosis (surface staining, flow cytometry). The note with it: protein synthesis blocked with cycloheximide. The experiment is classed as cell-based. The method, then:
as §1
In general terms: A flow cytometer gives signals particle by particle.

Regarding `CCCCCCCCCCCCCC(=O)OC[C@H](COP(=O)([O-])OCC[N+](C)(C)C)OC(=O)CCCCCCCCCCCCC` [DMPC, 1,2-dimyristoyl-sn-glycero-3-phosphocholine], the “binding to immobilized caspase-11(C254A) on SPR” value in experiment [1] was “did not bind detectably”. For the same compound, the TNFα release result in experiment [2] is “not affected”. In addition, the IL-1β release entry in experiment [3] is “unable to elicit IL-1β release”.

Regarding `CCCCCCCCCCCCCCCC(=O)OC[C@H](COP(=O)([O-])OCC[N+](C)(C)C)OC(=O)CCCC(=O)/C=C/C(=O)O` [KOdiA-PC, 1-(Palmitoyl)-2-(5-keto-6-octene-dioyl) phosphatidylcholine], the inflammasome activation entry in experiment [4] is “activated the inflammasome in DCs”. The TNFα release entry in experiment [2] is “not affected”. Further, in experiment [3], the IL-1β release entry is on record as “able to elicit IL-1β secretion”.

In the case of `CCN(CC)CCCC(C)Nc1ccnc2cc(Cl)ccc12` (stereo not drawn) [chloroquine], the “IL-1β release from DCs” value in experiment [3] (chloroquine pre-treatment, LPS-primed, oxPAPC-treated) is “promoted slightly more release of IL-1β”.

As for `C[C@@H]1C[C@@H]([C@H](O)CC2CC(=O)NC(=O)C2)C(=O)[C@@H](C)C1` [cycloheximide], the “TLR4 internalization or dimerization” value in experiment [5] is listed as “did not affect”. In addition, in experiment [6], the “extent of oxPAPC- or LPS-induced CD14 endocytosis” value is given as “enhanced”.
